Reference: BindingDB's records for doi:10.1016/s0960-894x(99)00301-7 (Nankai University, 1999)

Target: T1, Acetolactate synthase, chloroplastic (Arabidopsis thaliana, UniProt P17597)
T1 sequence (P17597 whole entry): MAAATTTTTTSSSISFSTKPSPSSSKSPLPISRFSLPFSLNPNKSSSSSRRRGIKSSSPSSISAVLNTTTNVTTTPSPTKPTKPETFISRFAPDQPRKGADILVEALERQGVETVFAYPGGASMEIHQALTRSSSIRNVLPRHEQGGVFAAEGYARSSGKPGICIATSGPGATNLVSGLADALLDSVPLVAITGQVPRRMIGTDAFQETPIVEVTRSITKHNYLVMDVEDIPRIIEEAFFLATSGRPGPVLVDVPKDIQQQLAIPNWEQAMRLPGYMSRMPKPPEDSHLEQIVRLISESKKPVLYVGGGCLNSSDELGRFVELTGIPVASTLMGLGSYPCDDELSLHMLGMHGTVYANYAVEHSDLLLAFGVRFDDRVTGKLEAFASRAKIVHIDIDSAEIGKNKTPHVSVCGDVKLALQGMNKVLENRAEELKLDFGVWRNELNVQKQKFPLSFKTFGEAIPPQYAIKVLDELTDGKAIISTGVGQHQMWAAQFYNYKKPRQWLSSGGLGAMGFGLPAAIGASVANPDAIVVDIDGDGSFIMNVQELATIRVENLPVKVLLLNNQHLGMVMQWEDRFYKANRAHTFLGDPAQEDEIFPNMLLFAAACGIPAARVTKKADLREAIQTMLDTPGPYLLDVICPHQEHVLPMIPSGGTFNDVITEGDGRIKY
Assay: ChEBML_27494
From the text: Inhibitory activity against Acetolactate synthase (ALS) enzyme by using the rape-root growth method

| Structure (SMILES) | IC50 |
| --- | --- |
| O=C(OCn1ccc(=O)[nH]c1=O)c1ccc(I)cc1 | > 269 µM |
| O=C(OCn1ccc(=O)[nH]c1=O)c1ccc(F)cc1 | 212 µM |
| O=C(OCn1ccc(=O)[nH]c1=O)c1ccc(Br)cc1 | 169 µM |
| COc1ccccc1C(=O)OCn1ccc(=O)[nH]c1=O | > 362 µM |
| O=C(OCn1ccc(=O)[nH]c1=O)c1ccc(Cl)cc1 | 182 µM |
| O=C(OCn1ccc(=O)[nH]c1=O)c1c(Cl)cc(C(F)(F)F)cc1Cl | > 261 µM |
| O=C(OCn1ccc(=O)[nH]c1=O)c1ccccc1 | 208 µM |
| O=C(OCn1ccc(=O)[nH]c1=O)c1ccc([N+](=O)[O-])cc1 | > 344 µM |
| Cc1cccc(C(=O)OCn2ccc(=O)[nH]c2=O)c1 | 62 µM |
| COc1ccc(C(=O)OCn2ccc(=O)[nH]c2=O)cc1 | > 362 µM |
| Cc1cnc(NS(=O)(=O)c2cc(Cl)ccc2Cl)s1 [2,5-Dichloro-N-(5-methyl-thiazol-2-yl)-benzenesulfonamide] | > 309 µM |
| Cc1ccc(NS(=O)(=O)c2ccc(F)cc2)nc1 [4-Fluoro-N-(5-methyl-pyridin-2-yl)-benzenesulfonamide] | 152 µM |
| COc1cc(Cl)nc(NS(=O)(=O)c2ccc(F)cc2)n1 [N-(4-Chloro-6-methoxy-pyrimidin-2-yl)-4-fluoro-benzenesulfonamide] | 111 µM |
| Cc1ccnc(NS(=O)(=O)c2ccccc2[N+](=O)[O-])n1 [N-(4-Methyl-pyrimidin-2-yl)-2-nitro-benzenesulfonamide] | 287 µM |
